Assay in all cases: G3 assay titration, GST-PDZ fusion / biotinylated peptide
Assay type in all cases: binding

One assay addresses T1, INADL d3 (Homo sapiens, UniProt Q8NI35).
T1 construct: made in house; host or cells: E. coli (DH5alpha, BL21 or JM109)
T1 sequence (Q8NI35 with tags, fused parts or gaps): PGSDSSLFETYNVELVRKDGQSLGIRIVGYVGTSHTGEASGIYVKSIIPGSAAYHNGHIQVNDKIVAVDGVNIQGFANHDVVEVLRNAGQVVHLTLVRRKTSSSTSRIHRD
An outline of the steps:
(§1)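 ELISA with anti-GST-captured GST-PDZ fusions (5 μg/ml), probed by biotinylated Tat-TRPM7 C-terminal peptide precomplexed 20 min with HRP-streptavidin. Binding ran 30 min at room temperature; TMB read at 450 nm. Peptide was titrated from 0.002 to 2 μM and data fitted to a binding equation.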

The target of the next assay is T2, LIM Mystique d1 (Homo sapiens, UniProt Q96JY6).
T2 construct: made in house; host or cells: E. coli (DH5alpha, BL21 or JM109)
T2 sequence (Q96JY6 1-91): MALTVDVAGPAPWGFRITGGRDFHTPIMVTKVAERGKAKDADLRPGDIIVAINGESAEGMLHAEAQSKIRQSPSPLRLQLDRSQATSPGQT

The next assay deals with T3, Mint 1 (d1, d2) (Homo sapiens, UniProt Q02410, K730E).
T3 construct: made in house; host or cells: E. coli (DH5alpha, BL21 or JM109)
T3 sequence (Q02410 651-828 K730E): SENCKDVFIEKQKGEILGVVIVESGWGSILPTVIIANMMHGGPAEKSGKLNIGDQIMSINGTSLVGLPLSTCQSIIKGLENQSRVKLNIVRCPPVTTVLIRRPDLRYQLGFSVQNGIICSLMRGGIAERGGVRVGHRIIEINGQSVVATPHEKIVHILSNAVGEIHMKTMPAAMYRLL

The target in the next assay is T4, PAR3 d3 (Homo sapiens, UniProt Q8TEW0, R682S).
T4 construct: made in house; host or cells: E. coli (DH5alpha, BL21 or JM109)
T4 sequence (Q8TEW0 with tags, fused parts or gaps R682S): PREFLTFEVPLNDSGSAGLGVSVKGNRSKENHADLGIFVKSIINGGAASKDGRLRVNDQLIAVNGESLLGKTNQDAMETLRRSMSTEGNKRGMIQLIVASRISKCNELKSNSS

Another assay has as its target T5, PAR3L d3 (Homo sapiens, UniProt Q8TEW8).
T5 construct: made in house; host or cells: E. coli (DH5alpha, BL21 or JM109)

Another assay has as its target T6, SITAC-18 d2 (Homo sapiens, UniProt Q9H190).
T6 construct: made in house; host or cells: E. coli (DH5alpha, BL21 or JM109)
T6 sequence (Q9H190 with tags, fused parts or gaps): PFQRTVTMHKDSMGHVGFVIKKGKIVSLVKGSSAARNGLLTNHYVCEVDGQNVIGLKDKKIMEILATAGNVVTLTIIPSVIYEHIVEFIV

The target of a further assay is T7, Syntrophin 1 alpha d1 (Homo sapiens, UniProt Q13424).
T7 construct: made in house; host or cells: E. coli (DH5alpha, BL21 or JM109)
T7 sequence (Q13424 84-177): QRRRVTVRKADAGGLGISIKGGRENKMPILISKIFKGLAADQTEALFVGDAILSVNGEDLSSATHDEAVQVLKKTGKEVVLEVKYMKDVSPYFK

In a further assay the target is T8, ZO-1 d2 (Homo sapiens, UniProt Q07157, DEL264-264).
T8 construct: made in house; host or cells: E. coli (DH5alpha, BL21 or JM109)
T8 sequence (Q07157 with tags, fused parts or gaps DEL264-264): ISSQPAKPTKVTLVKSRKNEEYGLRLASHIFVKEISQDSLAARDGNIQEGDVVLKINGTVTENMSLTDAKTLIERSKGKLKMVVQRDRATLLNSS
The essentials:
as §1

Residues, ends and D or L forms follow the SMILES beside them. *: point of attachment. Biotin = O=C1N[C@H]2[C@H](CS[C@H]2CCCCC(=O)*)N1

T5 sequence (Q8TEW8 with tags, fused parts or gaps): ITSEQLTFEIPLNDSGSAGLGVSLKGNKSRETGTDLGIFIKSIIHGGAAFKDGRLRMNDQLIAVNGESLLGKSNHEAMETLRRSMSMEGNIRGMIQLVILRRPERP

For the compound `CSCC[C@H](NC(=O)[C@H](CC(C)C)NC(=O)[C@H](CCCNC(=N)N)NC(=O)[C@@H](NC(=O)[C@H](CO)NC(=O)[C@H](CC(N)=O)NC(=O)[C@@H](NC(=O)[C@H](CO)NC(=O)[C@H](CCCNC(=N)N)NC(=O)[C@H](CCCNC(=N)N)NC(=O)[C@H](CCCNC(=N)N)NC(=O)[C@H](CCC(N)=O)NC(=O)[C@H](CCCNC(=N)N)NC(=O)[C@H](CCCNC(=N)N)NC(=O)[C@H](CCCCN)NC(=O)[C@H](CCCCN)NC(=O)[C@H](CCCNC(=N)N)NC(=O)CNC(=O)[C@H](Cc1ccc(O)cc1)NC(=O)CCCC[C@@H]1SC[C@@H]2NC(=O)N[C@@H]21)[C@@H](C)O)C(C)C)C(=O)N[C@@H](CC(C)C)C(=O)O` [Tat-TRPM7 peptide] (Biotin-YGRKKRRQRRRSTNSVRLML-OH), the EC50 (usually the concentration needed to bring the measured effect to its halfway point) on INADL d3 is 0.12 µM; on LIM Mystique d1 it was 0.09 µM; at Mint 1 (d1, d2), 0.18 µM; at PAR3 d3, 0.018 µM; on PAR3L d3, 0.1 µM; at SITAC-18 d2 it was 0.09 µM. Besides, the EC50 at Syntrophin 1 alpha d1 amounted to 0.16 µM; at ZO-1 d2, 0.033 µM.

The values above are taken from US20080119412A1, “Polypeptides for Modulating Binding of Trp Channel Proteins and Trp- Associated Proteins” (NoNO Inc., priority 2003, published 2008).
